Assay [1] concerns fibrocytes. The conditions noted are these: Tanaka H. et al., 1991; cited from earlier work.
The test system of assay [2] is keratinocytes. To be noted: Nack-in-Kim et al., J.Invest.Dermatol. 1993; cited from earlier work.
Assay [3] deals with normal human fibroblasts (NHF-50 years). As to the kind of experiment: Elastin secreted by normal human skin fibroblasts, ELISA on culture supernatants (NHF-50 years). It counts as cell-based. The source says: The cells had been obtained by the method of explants as described by M. Dumas et al. in the article entitled “in vitro biosynthesis of type I and III collagens by human dermal fibroblasts from donors of increasing ages” in Mech. Ageing Dev. 73 (1994), pages 179-187. These normal human skin fibroblasts thus obtained are sown in the wells of a multi-well culture box, in an E 199 culture medium, in which 2 millimoles per liter of L-glutamine have been added. Further, for a certain number of tests, the culture medium contains sodium ascorbate at concentrations of 15 or 25 micromoles per liter. 24 hours after sowing, certain wells receive ginsenoside Rb1 or an extract of Panax 1 to 10 μg/ml via a solution in DMSO so that the final DMSO concentration be 0.1%. […] These control cultures only receive DMSO at a final concentration of 0.1% by weight. The culture is continued for 48 h. After 48 h of culture as indicated above, the elastin secreted is determined on the supernatants of the culture, by an ELISA method derived from that used for the determination of collagen, as described by M. Dumas et al in the publication cited above, except that a commercial human anti-elastin polyclonal antibody was used instead of the human anti-collagen I and III polyclonal antibodies. A standard range made from commercial soluble elastin enables converting into nanograms of elastin the values of optical density (OD) obtained from the culture supernatants. In parallel with the determination of the elastin, a determination of the cell proteins is carried out on the cultures of fibroblasts, after removal of the supernatant, in order to bring the amount of elastin determined to a fixed amount of cell proteins. The determination is carried out by using a BCA-1 kit (Bicinchoninic acid kit, marketed by Sigma, France) after dissolution of the cell plug with 0.1 N sodium hydroxide solution. The results are expressed in nanograms of elastin secreted per microgram of cellular proteins. The activity A of stimulation, expressed in percentage, is calculated according to the following formula: [formula] […]

The test system of assay [4] is normal human fibroblasts (NHF-47 years). In words: Elastin secreted by normal human skin fibroblasts, ELISA on culture supernatants (NHF-47 years). It is filed as cell-based. To be noted: for Activity in % (stimulation of elastin secretion vs control): 48 h; for ng Elastin/μg prot/48 h: n=6. The source says: The cells had been obtained by the method of explants as described by M. Dumas et al. in the article entitled “in vitro biosynthesis of type I and III collagens by human dermal fibroblasts from donors of increasing ages” in Mech. Ageing Dev. 73 (1994), pages 179-187. These normal human skin fibroblasts thus obtained are sown in the wells of a multi-well culture box, in an E 199 culture medium, in which 2 millimoles per liter of L-glutamine have been added. Further, for a certain number of tests, the culture medium contains sodium ascorbate at concentrations of 15 or 25 micromoles per liter. 24 hours after sowing, certain wells receive ginsenoside Rb1 or an extract of Panax 1 to 10 μg/ml via a solution in DMSO so that the final DMSO concentration be 0.1%. […] These control cultures only receive DMSO at a final concentration of 0.1% by weight. The culture is continued for 48 h. After 48 h of culture as indicated above, the elastin secreted is determined on the supernatants of the culture, by an ELISA method derived from that used for the determination of collagen, as described by M. Dumas et al in the publication cited above, except that a commercial human anti-elastin polyclonal antibody was used instead of the human anti-collagen I and III polyclonal antibodies. A standard range made from commercial soluble elastin enables converting into nanograms of elastin the values of optical density (OD) obtained from the culture supernatants. In parallel with the determination of the elastin, a determination of the cell proteins is carried out on the cultures of fibroblasts, after removal of the supernatant, in order to bring the amount of elastin determined to a fixed amount of cell proteins. The determination is carried out by using a BCA-1 kit (Bicinchoninic acid kit, marketed by Sigma, France) after dissolution of the cell plug with 0.1 N sodium hydroxide solution. The results are expressed in nanograms of elastin secreted per microgram of cellular proteins. The activity A of stimulation, expressed in percentage, is calculated according to the following formula: [formula] The results obtained on the treated cultures (n=6) and controls (n=6) are compared with the aid of the Student t test for non-paired series. Any value of p<0.05 will indicate that a significant difference exists between the secretion of elastin of the control NHFs and those treated with the products of the invention.

[5] abbreviates: product 10 μg/ml, no ascorbate, DMSO 0.1%.

“And” between values parts separate entries of the source, which are not always exact repeats. Equal values may be shown once.

For `CC(C)=CCC[C@](C)(O[C@@H]1O[C@H](CO[C@@H]2OC[C@H](O)[C@H](O)[C@H]2O)[C@@H](O)[C@H](O)[C@H]1O)[C@H]1CC[C@]2(C)[C@@H]1[C@H](O)C[C@@H]1[C@@]3(C)CC[C@H](O[C@@H]4O[C@H](CO)[C@@H](O)[C@H](O)[C@H]4O[C@@H]4O[C@H](CO)[C@@H](O)[C@H](O)[C@H]4O)C(C)(C)[C@@H]3CC[C@]12C` [ginsenoside Rb2], the “synthesis of glycosaminoglycans (GAG) by the fibrocytes” value in assay [1] was “effective to stimulate the synthesis of glycosaminoglycans (GAG)”.

With ginsenoside, the “action on the proliferation of the keratinocytes” value in assay [2] was “inhibitory action”.

As to `CC(C)=CCC[C@](C)(O[C@@H]1O[C@H](CO[C@@H]2O[C@H](CO)[C@@H](O)[C@H](O)[C@H]2O)[C@@H](O)[C@H](O)[C@H]1O)[C@H]1CC[C@]2(C)[C@@H]1[C@H](O)C[C@@H]1[C@@]3(C)CC[C@H](O[C@@H]4O[C@H](CO)[C@@H](O)[C@H](O)[C@H]4O[C@@H]4O[C@H](CO)[C@@H](O)[C@H](O)[C@H]4O)C(C)(C)[C@@H]3CC[C@]12C` [G-Rb1, ginsenoside Rb1], the “Activity in % (stimulation of elastin secretion vs control)” value in assay [3] (NHF-50 years, product 10 μg/ml + Asc. 25 μM, 48 h) is 21% and 17%; in assay [4] (product 10 μg/ml + Asc. 15 μM) it was 16%; in assay [4] (product 10 μg/ml + Asc. 25 μM), 10%; in assay [4] (setting [5]), 31%. The “ng Elastin/μg prot/48 h” value in assay [3] (NHF-50 years, product 10 μg/ml + Asc. 25 μM, 48 h, n=6) was 26.3 + 3.7 ng Elastin/μg prot/48 h and 32 + 4.3 ng Elastin/μg prot/48 h and 28 + 2.2 ng Elastin/μg prot/48 h; in assay [4] (product 10 μg/ml + Asc. 15 μM), 39.3 + 2.8 ng Elastin/μg prot/48 h; in assay [4] (product 10 μg/ml + Asc. 25 μM), 38.8 + 6.8 ng Elastin/μg prot/48 h; in assay [4] (setting [5]) it was 25.8 ± 2.2 ng Elastin/μg prot/48 h. The “synthesis of elastin by the fibroblasts (conclusion in words)” value in assay [3] (conclusion from Tables 1 to 3 (NHF-47 and NHF-50 years), stimulation augments with concentration) was “strongly stimulate the synthesis of elastin”.

The record behind these values is patent US20020015743A1, “USE OF THE RB1, GINSENOSIDE FOR STIMULATING ELASTIN SYNTHESIS” (priority 1997, published 2002).
